Structures are written as SMILES. ≈ marks a conversion by molar mass, not a printed value.

The source of these data is DBAASP.

Holding throughout (assay): ≥ marks a high value that may be exact or a test limit, other limits are often not marked, values filed in µg/mL are converted to µM
In test [1] the test system is Acinetobacter baumannii MTCC 9829.
In test [2] the test system is Alcaligenes faecalis MTCC 1937.
The test system of test [3] is Alkalihalobacillus alcalophilus MTCC 860.
The subject of test [4] is Bordetella bronchiseptica MTCC 6837.
Test [5] relates to Citrobacter freundii MTCC 1658.
The subject of test [6] is Citrobacter koseri MTCC 1657.
The subject of test [7] is Corynebacterium glutamicum MTCC 2679.
Test [8] has as its system Enterococcus faecalis MTCC 439.
For test [9], the system named is Escherichia coli K12 MG1655.
Test [10] deals with Haemophilus influenzae MTCC 621.
For test [11], the system named is Klebsiella aerogenes MTCC 111.
The subject of test [12] is Klebsiella oxytoca MTCC 2275.
For test [13], the system named is Klebsiella pneumoniae MTCC 7407.
The subject of test [14] is Pluralibacter gergoviae MTCC 3826.
In test [15] the test system is Proteus mirabilis MTCC 3158.
Test [16] relates to Proteus vulgaris MTCC 1771.
Test [17] has as its system Pseudomonas aeruginosa MTCC 3542.
In test [18] the test system is Salmonella enterica MTCC 9844.
Test [19] has as its system Salmonella enterica subsp. enterica serovar Typhimurium ATCC 14028.
The subject of test [20] is Shigella boydii MTCC 11947.
In test [21] the test system is Shigella flexneri MTCC 1457.
For test [22], the system named is Staphylococcus aureus MTCC 3160.
The test system of test [23] is Staphylococcus haemolyticus MTCC 3383.
Test [24] relates to Stenotrophomonas maltophilia MTCC 1890.
In test [25] the test system is Vibrio cholerae MTCC 3904.
Test [26] concerns Enterococcus faecalis ATCC 29212.
The test system of a further test is Escherichia coli UB1005.
The subject of another test is Listeria monocytogenes.
In test [27] the test system is Pseudomonas aeruginosa K799.
The subject of test [28] is Salmonella enterica subsp. enterica serovar Typhimurium ATCC 14028s.
Test [29] has as its system Staphylococcus aureus ATCC 25923.
Test [30] deals with Staphylococcus epidermidis.
In test [31] the test system is Bacillus amyloliquefaciens ATCC 23842.
The test system of test [32] is Bacillus cereus ATCC 14579.
For test [33], the system named is Bacillus licheniformis ATCC 14580.
Test [34] has as its system Bacillus subtilis ATCC 6051.
In test [35] the test system is Enterococcus faecalis 1F-1.
The test system of test [36] is Enterococcus faecium 5F-10.
For test [37], the system named is Escherichia coli ATCC 25922.
Test [38] concerns Proteus mirabilis ATCC 35659.
In test [39] the test system is Pseudomonas aeruginosa PAO1.
Test [40] has as its system Salmonella enterica ATCC H9812.
Test [41] has as its system Staphylococcus aureus ATCC 29213.

As to `CC(C)C[C@H](NC(=O)[C@H](Cc1cnc[nH]1)NC(=O)[C@H](CC(N)=O)NC(=O)[C@H](Cc1c[nH]c2ccccc12)NC(=O)[C@H](CC(=O)O)NC(=O)[C@@H](N)CCC(=O)O)C(=O)NCC(=O)N[C@@H](C)C(=O)N[C@@H](C)C(=O)N[C@H](C(=O)N[C@@H](Cc1cnc[nH]1)C(=O)N[C@H](C(=O)N[C@@H](CC(C)C)C(=O)N[C@@H](CCCCN)C(=O)N[C@@H](Cc1cnc[nH]1)C(=O)N[C@H](C(=O)N[C@@H](Cc1ccc(O)cc1)C(=O)N[C@@H](CCCCN)C(=O)O)C(C)C)[C@@H](C)O)C(C)C` [EDWNHLGAAVHTLKHVYK], the MIC in test [1], in test [2], in [3], in [4], in test [5] and in [6] was ≥ 60.4 µM in each case. For the same molecule, the MIC in test [7], in [8], in [9], in test [10], in [11] and in test [12] was ≥ 60.4 µM each time. The MIC in test [13], in test [14], in [15], in test [16], in test [17] and in [18] was ≥ 60.4 µM in each case. Besides, the MIC in test [19] was > 60.4 µM; in [20], ≥ 60.4 µM; in [21] it was ≥ 60.4 µM; in test [22], ≥ 60.4 µM; in test [23] it was ≥ 60.4 µM; in test [24], ≥ 60.4 µM. In [25], the MIC was ≥ 60.4 µM.

With `CC(C)C[C@H](NC(=O)[C@H](Cc1cnc[nH]1)NC(=O)[C@H](CCCN=C(N)N)NC(=O)[C@H](C)NC(=O)[C@H](CCCN=C(N)N)NC(=O)[C@H](Cc1cnc[nH]1)NC(=O)[C@H](C)NC(=O)[C@@H](NC(=O)[C@H](Cc1cnc[nH]1)NC(=O)[C@H](CCCCN)NC(=O)[C@H](CC(C)C)NC(=O)[C@H](CO)NC(=O)[C@H](C)NC(=O)[C@H](CO)NC(=O)[C@H](CC(C)C)NC(=O)[C@@H](N)CCCCN)C(C)C)C(=O)N[C@@H](CO)C(=O)O` [KLSASLKHVAHRARHLS], the MIC in [1], in [2], in [3], in [4], in [5] and in test [6] was ≥ 67 µM throughout. Besides, the MIC in [7], in test [8], in test [9], in [10], in [11] and in [12] was ≥ 67 µM throughout. For the same molecule, the MIC in [13], in test [14], in [15], in test [16], in test [17] and in test [18] was ≥ 67 µM in each case. Also, the MIC in test [19] was > 67 µM; in test [20] it was ≥ 67 µM; in [21] it was ≥ 67 µM; in test [22] it was ≥ 67 µM; in [23] it was ≥ 67 µM; in test [24], ≥ 67 µM. Besides, the MIC in test [25] is ≥ 67 µM.

For the molecule `CC[C@H](C)[C@H](NC(=O)[C@H](CCCN=C(N)N)NC(=O)[C@H](CS)NC(=O)[C@H](CC(C)C)NC(=O)[C@H](CCCN=C(N)N)NC(=O)[C@@H](N)CCCN=C(N)N)C(=O)N[C@H](C(=O)N[C@H](C(=O)N[C@H](C(=O)N[C@@H](CCCN=C(N)N)C(=O)N[C@H](C(=O)N[C@@H](CS)C(=O)N[C@@H](CCCN=C(N)N)C(=O)N[C@@H](CCCN=C(N)N)C(=O)O)C(C)C)[C@@H](C)CC)C(C)C)C(C)C` [RRLCRIVVIRVCRR], the MIC in test [26] was 2.22 µM (≈ 4 µg/mL); in the test with Escherichia coli UB1005 it was 2.22 µM (≈ 4 µg/mL); in the test with Listeria monocytogenes it was 0.278 µM (≈ 0.5 µg/mL); in [27] it was 8.9 µM (≈ 16 µg/mL); in test [28], 17.8 µM (≈ 32 µg/mL); in [29] it was > 35.6 µM. The MIC in test [30] is 2.22 µM (≈ 4 µg/mL).

In the case of `CC(C)C[C@H](NC(=O)[C@H](CC(C)C)NC(=O)[C@H](CCC(=O)O)NC(=O)[C@H](CC(=O)O)NC(=O)[C@@H](NC(=O)[C@@H](N)CCCN=C(N)N)C(C)C)C(=O)N[C@@H](CO)C(=O)O` [RVDELLS], the MIC in [31], in test [32], in test [33], in [34], in test [35] and in test [36] was ≥ 154 µM each time. For the same molecule, the MIC is > 154 µM in test [37]; ≥ 154 µM in test [38]; > 154 µM in [39]; ≥ 154 µM in test [40]; > 154 µM in test [41].
